Measured values from US20060204980A1, “Colorectal cancer therapies” (priority 2004, published 2006).

Experiments:
Assay type in all cases: cell-based
[1] = system: p53^−/− HCT116 cells; assay: Multiparametric flow cytometry of caspase-3/7 (DEVDase) activity and cell viability, p53-/- HCT116; settings: TDZD 20 μM, 48 hours; for apoptosis induction (DEVDase activity and plasma membrane integrity): p53-/- HCT116, LiCl 30 mM
Procedure: (§1) The functional consequences of GSK3β inhibition were explored. Source and maintenance of p53^+/+ and p53^−/− HCT116 colorectal carcinoma cells were as described in Example 2. […] Alternatively, cells were incubated with GSK3β inhibitors LiCl (30 mM) or TDZD (20 μM), harvested after 48 hours and analyzed for cell viability (propidium iodide, red channel) and active caspase-3/7 activity (green channel, […]®, from Chemicon International Inc., Temecula, Calif.), by multiparametric flow cytometry as reported previously in Kim et al., Lancet, 362:205-209 (2003).
(§2) To clarify the role of GSK3β inhibition in p53-dependent apoptosis, HCT116 cells were treated with TDZD or LiCl and monitored changes in cell death. […] See the two center column panels of FIG. 6C. […] See right hand column panels of FIG. 6C.

[2] = target: GSK3β (Homo sapiens, UniProt P49841); assay: Immunoprecipitation and GSK3β kinase assay using glycogen synthase-derived peptide substrate, from treated HCT116 cells; set-up: harvested after 6 or 12 hours, and immunoprecipitated with an antibody to GSK3β; endogenous in cells; host or cells: HCT116 (p53+/+) colorectal carcinoma cells; settings: p53+/+ HCT116 cells; Purvalanol A 10 μM, LiCl 30 mM, TDZD 20 μM; 6 or 12 hours
Procedure: Immune complexes were mixed with a synthetic peptide containing a GSK3β phosphorylation site derived from the sequence of glycogen synthase (Upstate Biotechnology) in the presence of 10 μCi of γ-^32P-ATP (Amersham Corp., Piscataway, N.J.), after 30 min incubation at 30° C., the reaction mixtures were centrifuged briefly, and 15 μl of the supernatant was spotted onto P81 phosphocellulose paper (Whatman Inc., Clifton, N.J.). The membrane was washed three times with 175 mM phosphoric acid, rinsed once in acetone, and dried. Changes in peptide phosphorylation under the various conditions tested were determined by scintillation counting. Data were analyzed using the unpaired t test on a Graphpad Prism software package for Windows (Graphpad Inc., San Diego, Calif.). A P value of 0.05 was considered as statistically significant.

[3] = system: p53^+/+ HCT116 cells; assay: Multiparametric flow cytometry of caspase-3/7 (DEVDase) activity and cell viability, p53+/+ HCT116; settings: TDZD 20 μM, 48 hours; for caspase-dependent apoptosis (DEVDase activity and plasma membrane integrity): p53+/+ HCT116, LiCl 30 mM
Procedure: as §1, §2

[4] = system: p53^+/+ HCT116 colorectal carcinoma cells; assay: Western blotting of p53 pathway proteins in treated p53+/+ HCT116 cells; settings: for survivin expression (Western blot) / p53 expression (Western blot) / p21^Waf1/Cip1 expression (Western blot): p53+/+ HCT116; for p53 expression (Western blot) / p21^Waf1/Cip1 expression (Western blot): 6-24 hours
Procedure: (§3) Cells were collected and centrifuged at 3,000 rpm for 5 minutes at 4° C., and washed in PBS (pH 7.2). The cell pellet was solubilized in lysis buffer (20 mM Tris, pH 7.2, 0.5% deoxycholate, 1% Triton X-100, 0.1% SDS, 150 mM NaCl, 1 mM EDTA) containing proteases inhibitors (Complete, Roche Applied Science) for 30 min at 4° C. The lysate was cleared by centrifugation for 15 minutes, and protein concentration was evaluated using a Bio-Rad protein assay system (Bio-Rad Laboratories, Hercules, Calif.). Samples (30 μg) were separated by SDS-polyacrylamide gel, transferred to nylon membranes (Millipore), and incubated with primary antibodies to p53 (Oncogene Research Products, FL-393, Santa Cruz Biotechnology, Inc., Santa Cruz, Calif.), p21^Waf1/Cip1 (Oncogene Research Products), XIAP (BD Transduction Laboratories), survivin (NOVUS Biologicals, Littleton, Colo.), MDM2 (Santa Cruz Biotechnology, Inc.), p14^ARF (NOVUS Biologicals), caspase-3 (Cell Signaling Technology), cleaved caspase-3 (Cell Signaling Technology), β-catenin (BD Transduction Laboratories), cyclin B1 (GNS1, Santa Cruz Biotechnology, Inc.), GSK3β (Santa Cruz Biotechnology, Inc.), or β-sactin (Sigma) with detection of reactive bands by chemiluminescence (Amersham). Cells were analyzed for hypodiploid DNA content by propidium iodide staining and flow cytometry as described in O'Connor et al., Cancer Cell, 2:43-54 (2002). Chemicals whose source is not explicitly listed were or can be obtained from Sigma.
To explore the link between GSK3β inhibition and p53 modulation, in vivo, HCT116 cells were treated with Li, TDZD or SB216763, and analyzed cells by Western blotting. p53^+/+ or p53^−/− HCT116 cells were incubated with the following GSK3β inhibitors, LiCl (Sigma, 30 mM), thiadiazolidinone-8 (TDZD) (Calbiochem, 0-20 μM), or SB216763 (Sigma, 20 μM), cells were harvested after 6-24 hours, and samples were analyzed by Western blotting as described in Example 2. […]

[5] = system: p53^−/− HCT116 colorectal carcinoma cells; assay: Western blotting of p53 pathway proteins in treated p53-/- HCT116 cells
Procedure: as §3
To explore the link between GSK3β inhibition and p53 modulation, in vivo, HCT116 cells were treated with Li, TDZD or SB216763, and analyzed cells by Western blotting. p53^+/+ or p53^−/− HCT116 cells were incubated with the following GSK3β inhibitors, LiCl (Sigma, 30 mM), thiadiazolidinone-8 (TDZD) (Calbiochem, 0-20 μM), or SB216763 (Sigma, 20 μM), cells were harvested after 6-24 hours, and samples were analyzed by Western blotting as described in Example 2.

Sequence of GSK3β (P49841 whole entry): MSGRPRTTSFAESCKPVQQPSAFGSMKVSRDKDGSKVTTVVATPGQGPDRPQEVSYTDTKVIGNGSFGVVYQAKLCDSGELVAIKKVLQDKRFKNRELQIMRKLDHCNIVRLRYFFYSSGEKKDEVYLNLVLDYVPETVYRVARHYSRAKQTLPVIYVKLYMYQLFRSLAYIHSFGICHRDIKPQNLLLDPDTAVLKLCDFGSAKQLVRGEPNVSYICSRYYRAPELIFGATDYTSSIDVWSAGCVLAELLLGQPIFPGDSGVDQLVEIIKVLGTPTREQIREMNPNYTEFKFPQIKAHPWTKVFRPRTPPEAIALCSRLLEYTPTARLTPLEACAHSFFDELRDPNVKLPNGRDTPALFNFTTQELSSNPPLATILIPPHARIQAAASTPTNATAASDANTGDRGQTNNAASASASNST

Compound: [Cl-].[Li+] [LiCl, lithium chloride]
- apoptosis induction (DEVDase activity and plasma membrane integrity) [1]: considerably less effective at inducing apoptosis
- GSK3β kinase activity (peptide phosphorylation) [2]: suppressed GSK3β activity
- caspase-dependent apoptosis (DEVDase activity and plasma membrane integrity) [3]: reproduced caspase-dependent apoptosis
- survivin expression (Western blot) [4]: time-dependent downregulation of survivin
- p53 expression (Western blot) [4]: elevation of p53 levels only at 24 hours after treatment

Compound: Cn1cc(C2=C(c3ccc(Cl)cc3Cl)C(=O)NC2=O)c2ccccc21 [SB216763]
- p21^Waf1/Cip1 expression (Western blot) [4]: prominent upregulation
- p53 expression (Western blot) [4]: strong induction of p53

Compound: Cn1sc(=O)n(Cc2ccccc2)c1=O [TDZD, 4-Benzyl-2-methyl-1,2,4-thiadiazolidine-3,5-dione]
- apoptosis induction (DEVDase activity and plasma membrane integrity) [1]: considerably less effective at inducing apoptosis
- increase in fraction of apoptotic cells ([1]; p53-/- cells): 1.7 fold
- GSK3β kinase activity (peptide phosphorylation) [2]: suppressed GSK3β activity
- survivin expression (Western blot) [5]: no changes in survivin expression
- caspase-dependent apoptosis (DEVDase activity and plasma membrane integrity) [3]: reproduced caspase-dependent apoptosis
- increase in fraction of apoptotic cells ([3]; p53+/+ cultures): ~4.5 fold
- MDM2 expression (Western blot) ([4]; HCT116 cells): reduced expression
- p14^ARF expression (Western blot) ([4]; HCT116 cells, relative to vehicle): upregulation of p14^ARF
- survivin expression (Western blot) [4]: time-dependent downregulation of survivin
- p21^Waf1/Cip1 expression (Western blot) [4]: prominent upregulation
- p53 expression (Western blot) [4]: strong induction of p53

Compound: O=C1Cc2c([nH]c3ccc([N+](=O)[O-])cc23)-c2ccccc2N1 [alsterpaullone]
- p53 expression (Western blot) [4]: elevation of p53 levels
